Several values for one entry are separate records, joined by “and”; a condition that tells them apart may be missing. Equal values may be shown once. Read-outs that look alike come from different tables or passages of the source.
Legend:
MtbCoaBC [1] = target: T1, MtbCoaBC (Mycobacterium tuberculosis, UniProt P9WNZ1); assay: Competition assays, first half of CoaB reaction (EnzChek, variable CTP or PPA); type: biochemical; details: in words
MsmCoaBC = MsmCoaBC (Mycolicibacterium smegmatis, UniProt A0QWT2); assay: EnzChek pyrophosphate assay, CoaB activity of MsmCoaBC; type: biochemical, Mycobacterium smegmatis
Method: The commercially available EnzChek pyrophosphate assay kit (E-6645) (Life Technologies) was used for this assay. […] In the assays with HCoaB an enzyme concentration of 1 µM was used instead. […] Assays were performed on either a CLARIOstar or PHERAstar microplate reader (BMG Labtech) in 96-well plates (Greiner). A substrate mixture containing the substrates and the inhibitor was pre-incubated at 25 °C for 10 min. An enzyme solution was prepared and separately pre-incubated at 25 °C for 10 min. The reaction was initiated by the addition of the substrates to the solution containing the enzyme to a final volume of 75 µL. Enzymatic activity was monitored by following the absorbance at 360 nm for 30 min (100 cycles/20 s each cycle) and only the steady-state region of the assay was used for data analysis. Assays were performed in triplicates, including a negative control (lacking PPA) and a positive control (lacking inhibitor).

MtbCoaBC [2] = target: T1, MtbCoaBC; assay: CMP quantification assay (UPLC), second half of CoaB reaction, variable L-cysteine; type: biochemical; details: for CMP formation rate, uM CMP/uM protein.s-1: MtbCoaBC 32 nM, replicates R1-R3
[3] = test system: M. tuberculosis coaBC Tet-OFF conditional knockdown; type: cell-based, Mycobacterium tuberculosis; details: GAST/Fe minimal media
MtbCoaBC [4] = target: T1, MtbCoaBC; assay: biochemical; type: biochemical; details: for activity at 0.015625 µM / activity at 0.03125 µM: relative to average DMSO CT; for Activity R1 / Activity R3: slope of absorbance at 360 vs time (s)
[5] = MsmCoaBC, 1b at concentration 1 (log 0; unit not given)
[6] = MsmCoaBC, 1b at concentration 2 (log 0.30103; unit not given)
[7] = MsmCoaBC, 0.015625 uM 1b, relative to average DMSO CT, replicates R1-R3
[8] = MsmCoaBC, 0.015625 uM 1b, replicates R1-R3
[9] = MsmCoaBC, 0.03125 uM 1b, relative to average DMSO CT, replicates R1-R3
[10] = MsmCoaBC, 0.03125 uM 1b, replicates R1-R3
[11] = MsmCoaBC, 0.0625 uM 1b, relative to average DMSO CT, replicates R1-R3
[12] = MsmCoaBC, 0.0625 uM 1b, replicates R1-R3
[13] = MsmCoaBC, 0.25 uM 1b, relative to average DMSO CT, replicates R1-R3
[14] = MsmCoaBC, 0.25 uM 1b, replicates R1-R3
[15] = MsmCoaBC, 0.5 uM 1b, replicates R1-R3

MsmCoaBC, sequence (A0QWT2 whole entry): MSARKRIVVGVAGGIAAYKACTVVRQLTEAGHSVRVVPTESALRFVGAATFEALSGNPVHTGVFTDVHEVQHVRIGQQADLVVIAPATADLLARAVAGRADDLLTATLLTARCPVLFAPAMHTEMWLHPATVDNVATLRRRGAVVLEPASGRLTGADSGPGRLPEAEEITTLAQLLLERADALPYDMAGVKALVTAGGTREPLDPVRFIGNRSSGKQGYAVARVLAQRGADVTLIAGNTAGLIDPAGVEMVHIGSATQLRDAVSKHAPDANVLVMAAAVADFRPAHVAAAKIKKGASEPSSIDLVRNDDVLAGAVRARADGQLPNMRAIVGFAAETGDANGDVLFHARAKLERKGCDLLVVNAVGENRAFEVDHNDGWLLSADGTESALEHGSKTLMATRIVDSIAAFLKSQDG
T1 sequence (P9WNZ1 whole entry): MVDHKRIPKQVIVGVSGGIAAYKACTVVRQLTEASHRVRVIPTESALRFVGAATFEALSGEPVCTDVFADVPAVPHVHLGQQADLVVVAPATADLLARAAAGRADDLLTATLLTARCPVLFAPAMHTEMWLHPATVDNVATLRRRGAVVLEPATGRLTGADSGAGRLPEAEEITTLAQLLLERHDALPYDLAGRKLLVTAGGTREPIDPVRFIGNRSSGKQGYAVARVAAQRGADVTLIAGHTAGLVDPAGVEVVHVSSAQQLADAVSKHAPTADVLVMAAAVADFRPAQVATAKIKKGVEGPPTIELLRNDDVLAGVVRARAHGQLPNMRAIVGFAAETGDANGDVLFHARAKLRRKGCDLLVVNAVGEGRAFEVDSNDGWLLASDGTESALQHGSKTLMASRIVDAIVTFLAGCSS

O=C(c1ccc(O)cc1)c1ccc(O)c(O)c1O [compound 1b]
mode of inhibition (MtbCoaBC [1]; relative to CTP): uncompetitive inhibition
mode of inhibition (MtbCoaBC [1]; relative to PPA): uncompetitive inhibition
IC50 (MsmCoaBC): 260 ± 20 nM
inhibition, replicates 1-3 (MsmCoaBC; [5]): 86.05 and 84.82 and 84.29
reaction rate (slope of absorbance at 360 nm versus time), replicates 1-3 (MsmCoaBC; [5]): 0.000051231 and 0.000045511 and 0.000049507
remaining activity relative to control, replicates 1-3 (MsmCoaBC; [5]): 15.71 and 13.95 and 15.18
inhibition, replicates 1-3 (MsmCoaBC; [6]): 94.07
reaction rate (slope of absorbance at 360 nm versus time), replicates 1-3 (MsmCoaBC; [6]): -0.000000851 and -0.000003095 and 0.000019348
remaining activity relative to control, replicates 1-3 (MsmCoaBC; [6]): -0.2608 and -0.9489 and 5.932
Activity % (MsmCoaBC; [7]): 96.69% and 95.33%
activity at 0.015625 µM (MsmCoaBC; [7]): 98.6%
Activity (slope of absorbance at 360 nm vs time) (MsmCoaBC; [8]): 0.0003217 and 0.0003154 and 0.0003109
Inhibition % (MsmCoaBC; [8]): 3.31% and 4.67% and 1.38%
Activity % (MsmCoaBC; [9]): 95.46% and 96.92%
activity at 0.03125 µM (MsmCoaBC; [9]): 93.2%
Activity (slope of absorbance at 360 nm vs time) (MsmCoaBC; [10]): 0.0003041 and 0.0003114 and 0.0003161
Inhibition % (MsmCoaBC; [10]): 4.54% and 3.08% and 6.75%
Activity % (MsmCoaBC; [11]): 92.06% and 92.26%
activity at 0.0625 µM (MsmCoaBC; [11]): 85.7%
Activity (slope of absorbance at 360 nm vs time) (MsmCoaBC; [12]): 0.0002796 and 0.0003003 and 0.0003009
Inhibition % (MsmCoaBC; [12]): 7.74% and 14.27%
inhibition at 0.0625 µM (MsmCoaBC; [12]): 7.94%
Activity % (MsmCoaBC; [13]): 48.31% and 55.06%
activity at 0.25 µM (MsmCoaBC; [13]): 46%
Activity (slope of absorbance at 360 nm vs time) (MsmCoaBC; [14]): 0.0001501 and 0.0001576 and 0.0001796
Inhibition % (MsmCoaBC; [14]): 44.94% and 53.97%
inhibition at 0.25 µM (MsmCoaBC; [14]): 51.7%
Activity % (MsmCoaBC; MsmCoaBC, 0.5 uM 1b, relative to average DMSO CT, replicates R1-R3): 12.28% and 18.89% and 25.96%
Activity (slope of absorbance at 360 nm vs time) (MsmCoaBC; [15]): 0.000040045 and 0.000061602 and 0.000084683
Inhibition % (MsmCoaBC; [15]): 74.04% and 87.72%
inhibition at 0.5 µM (MsmCoaBC; [15]): 81.1%
CMP formation rate, uM CMP/uM protein.s-1 (MtbCoaBC [2]; 0.0625 uM 1b, 31.25 uM L-cysteine): 0.1694 uM CMP/uM protein.s-1 and 0.1962 uM CMP/uM protein.s-1 and 0.1676 uM CMP/uM protein.s-1
CMP formation rate, uM CMP/uM protein.s-1 (MtbCoaBC [2]; 0.0625 uM 1b, 62.5 uM L-cysteine): 0.2113 uM CMP/uM protein.s-1 and 0.2325 uM CMP/uM protein.s-1 and 0.2281 uM CMP/uM protein.s-1
CMP formation rate, uM CMP/uM protein.s-1 (MtbCoaBC [2]; 0.0625 uM 1b, 250 uM L-cysteine): 0.2822 uM CMP/uM protein.s-1 and 0.2759 uM CMP/uM protein.s-1 and 0.2797 uM CMP/uM protein.s-1
CMP formation rate, uM CMP/uM protein.s-1 (MtbCoaBC [2]; 0.0625 uM 1b, 500 uM L-cysteine): 0.3148 uM CMP/uM protein.s-1 and 0.3211 uM CMP/uM protein.s-1 and 0.3277 uM CMP/uM protein.s-1
CMP formation rate, uM CMP/uM protein.s-1 (MtbCoaBC [2]; 0.250 uM 1b, 31.25 uM L-cysteine): 0.1192 uM CMP/uM protein.s-1 and 0.1053 uM CMP/uM protein.s-1 and 0.1262 uM CMP/uM protein.s-1
CMP formation rate, uM CMP/uM protein.s-1 (MtbCoaBC [2]; 0.250 uM 1b, 62.5 uM L-cysteine): 0.1329 uM CMP/uM protein.s-1 and 0.1247 uM CMP/uM protein.s-1 and 0.1395 uM CMP/uM protein.s-1
CMP formation rate, uM CMP/uM protein.s-1 (MtbCoaBC [2]; 0.250 uM 1b, 250 uM L-cysteine): 0.1577 uM CMP/uM protein.s-1 and 0.155 uM CMP/uM protein.s-1 and 0.1593 uM CMP/uM protein.s-1
CMP formation rate, uM CMP/uM protein.s-1 (MtbCoaBC [2]; 0.250 uM 1b, 500 uM L-cysteine): 0.1688 uM CMP/uM protein.s-1 and 0.1557 uM CMP/uM protein.s-1 and 0.1625 uM CMP/uM protein.s-1
mode of inhibition (MtbCoaBC [2]; relative to L-cysteine, in words): uncompetitive inhibition
sensitisation on incremental silencing of CoaBC [3]: did not sensitise M. tuberculosis further
inhibition at 0.015625 µM (MtbCoaBC [4]; 0.015625 uM 1b, replicate R1, read-out: Inhibition % R1): 2.55%
activity at 0.015625 µM (MtbCoaBC [4]; 0.015625 uM 1b, replicate R1, read-out: Activity % R1): 97.4%
Activity R1 (MtbCoaBC [4]; 0.015625 uM 1b, replicate R1): 0.0001869
inhibition at 0.015625 µM (MtbCoaBC [4]; 0.015625 uM 1b, replicate R2, read-out: Inhibition % R2): 2.2%
activity at 0.015625 µM (MtbCoaBC [4]; 0.015625 uM 1b, replicate R2, read-out: Activity % R2): 97.8%
inhibition at 0.015625 µM (MtbCoaBC [4]; 0.015625 uM 1b, replicate R3, read-out: Inhibition % R3): 1.31%
activity at 0.015625 µM (MtbCoaBC [4]; 0.015625 uM 1b, replicate R3, read-out: Activity % R3): 98.7%
Activity R3 (MtbCoaBC [4]; 0.015625 uM 1b, replicate R3): 0.0001893
inhibition at 0.03125 µM (MtbCoaBC [4]; 0.03125 uM 1b, replicate R1, read-out: Inhibition % R1): 6.71%
activity at 0.03125 µM (MtbCoaBC [4]; 0.03125 uM 1b, replicate R1, read-out: Activity % R1): 93.3%
Activity R1 (MtbCoaBC [4]; 0.03125 uM 1b, replicate R1): 0.0001789
inhibition at 0.03125 µM (MtbCoaBC [4]; 0.03125 uM 1b, replicate R2, read-out: Inhibition % R2): 2.99%
activity at 0.03125 µM (MtbCoaBC [4]; 0.03125 uM 1b, replicate R2, read-out: Activity % R2): 97%
inhibition at 0.03125 µM (MtbCoaBC [4]; 0.03125 uM 1b, replicate R3, read-out: Inhibition % R3): 1.51%
activity at 0.03125 µM (MtbCoaBC [4]; 0.03125 uM 1b, replicate R3, read-out: Activity % R3): 98.5%
Activity R3 (MtbCoaBC [4]; 0.03125 uM 1b, replicate R3): 0.0001889
inhibition at 0.0625 µM (MtbCoaBC [4]; 0.0625 uM 1b, replicate R1, read-out: Inhibition % R1): 9.45%

Reference: publication PMC7794376 (Nature Communications, 2021)
